Assay results as given in patent publication US11716974B2, “Human liver chimeric mouse with deficient P450 oxidoreductase” (Baylor College of Medicine, priority 2016, dated 2023).

What was measured:
[1] = Gefitinib metabolites M4 and M28 in feces of humanized (Hu-PIRF) and control mice (mass spectrometry); type: in vivo, human liver chimeric mouse
Method: Feces samples were weighted and homogenized in water (100 mg feces in 1,000 μl of H2O). Subsequently, 300 μl of methanol was added to 100 μl of the resulting mixture, followed by centrifugation at 15,000 g for 20 min. The supernatant was transferred to a new Eppendorf vial for a second centrifugation (15,000 g for 20 min). The final concentration of agomelatine is 2 μM. Each supernatant was transferred to an auto sampler vial for analysis (described below).
The column temperature was maintained at 40° C. The flow rate of was 0.3 mL/min with a gradient ranging from 2% to 98% aqueous acetonitrile containing 0.1% formic acid in a 15-min run. Quadrupole time of flight mass spectrometry (QTOFMS) was operated in positive mode with electrospray ionization. Ultra-highly pure nitrogen was applied as the drying gas (12 L/min) and the collision gas. The drying gas temperature was set at 325° C. and nebulizer pressure was kept at 35 psi. The capillary voltages were set at 3.5 kV. During mass spectrometry, real time mass correction and accurate mass were achieved by continuously measuring standard reference ions at m/z 121.0508, 922.0098 in the positive mode. Mass chromatograms and mass spectra were acquired by MassHunter Workstation data Acquisition software (Agilent, Santa Clara, Calif.) in centroid and profile formats from m/z 50 to 1000. The acquisition rate was set as 1.5 spectra per second. […] Meanwhile, the quality control samples were performed every 10 samples in the process of the sample running. Due to the authentic compounds of metabolites not available, the metabolite identification was based on their exact mass and MS/MS fragments. The chromatograms and relative abundance of metabolite were performed on Qualitative Analysis software (Agilent, Santa Clara, Calif.). The relative abundance was evaluated based on integrated peak area of each metabolite.

[2] = Liver enzymes after gefitinib; conditions: mouse, in vivo
[3] = Troglitazone phase II metabolites in livers of humanized and non-humanized mice with and without Por and Ugdh deletion; type: in vivo, mouse; conditions: liver
Method: Percentage of liver glucuronidated and sulfated metabolites detected in humanized livers 2 hours after i.p injection of troglitazone (600 mg/kg). FIG. 25A. Humanized FRG mice. FIG. 25B. Humanized FRG mice after murine Por and Ugdh deletion. FIG. 25C. Non-humanized FRG mice. FIG. 25D. Non-humanized FRG mice with Por and Ugdh genes deleted. Sulfate metabolites of troglitazone in red and glucuronide conjugates in blue.
Troglitazone metabolites (two hours after i.p. injection of 600 mg/kg troglitazone) in the livers of humanized and non-humanized FRG mice with and without Por and Ugdh deletion was analyzed.

| SMILES | level of metabolite M4 in feces ([1]; murine Por-deficient Hu-PIRF mice versus Por-expressing humanized and non-humanized control mice) | level of human-specific metabolite M28 in feces ([1]; murine Por-deficient Hu-PIRF mice versus control groups) | elevation of liver enzymes [2] | glucuronide conjugates in non-humanized livers of control mice versus humans or humanized mice ([3]; two hours after i.p. injection of 600 mg/kg) | glucuronide conjugates upon deletion of ugdh and por ([3]; non-humanized and humanized mice, two hours after i.p. 600 mg/kg) |
| --- | --- | --- | --- | --- | --- |
| COc1cc2ncnc(Nc3ccc(F)c(Cl)c3)c2cc1OCCCN1CCOCC1 [gefitinib] | highest level | highest level | did not cause any elevation of liver enzymes | – | – |
| Cc1c(C)c2c(c(C)c1O)CCC(C)(COc1ccc(CC3SC(=O)NC3=O)cc1)O2 (centres unmarked) [troglitazone] | – | – | – | much higher amounts | reduced significantly |
